Experimental data taken from PMC12390684 (Viruses, 2025).
Numbered stars: 1 amine (or outer) side, 2 acyl side, 3 side chain; on linkers, the order of the positions; unused ones are H or OH. Bridge positions count the residues as written; N and C are the ends. Square brackets hold non-standard residues; d marks the D form. Peptide text beside a SMILES is read from it. I, II: the chains in the order shown. Actinocin(9to1) = Cc1c2oc3c(C)ccc(C(=O)[*:1])c3nc-2c(C(=O)[*:2])c(N)c1=O; NMeV = CN[C@H](C(=O)O)C(C)C; Sar = CNCC(=O)O

Biological target: IN-GCN2 interaction (6xHis-IN / GST-GCN2) (UniProt P04585+Q9P2K8)
Test: biochemical
Format: binding, HIV-1 IN; human GCN2
Settings: screen, single dose 100 µM, single replicate, residual AlphaLISA signal normalized to DMSO control

IN-GCN2 interaction (6xHis-IN / GST-GCN2), sequence (Q9P2K8 192-1024, other chains not shown): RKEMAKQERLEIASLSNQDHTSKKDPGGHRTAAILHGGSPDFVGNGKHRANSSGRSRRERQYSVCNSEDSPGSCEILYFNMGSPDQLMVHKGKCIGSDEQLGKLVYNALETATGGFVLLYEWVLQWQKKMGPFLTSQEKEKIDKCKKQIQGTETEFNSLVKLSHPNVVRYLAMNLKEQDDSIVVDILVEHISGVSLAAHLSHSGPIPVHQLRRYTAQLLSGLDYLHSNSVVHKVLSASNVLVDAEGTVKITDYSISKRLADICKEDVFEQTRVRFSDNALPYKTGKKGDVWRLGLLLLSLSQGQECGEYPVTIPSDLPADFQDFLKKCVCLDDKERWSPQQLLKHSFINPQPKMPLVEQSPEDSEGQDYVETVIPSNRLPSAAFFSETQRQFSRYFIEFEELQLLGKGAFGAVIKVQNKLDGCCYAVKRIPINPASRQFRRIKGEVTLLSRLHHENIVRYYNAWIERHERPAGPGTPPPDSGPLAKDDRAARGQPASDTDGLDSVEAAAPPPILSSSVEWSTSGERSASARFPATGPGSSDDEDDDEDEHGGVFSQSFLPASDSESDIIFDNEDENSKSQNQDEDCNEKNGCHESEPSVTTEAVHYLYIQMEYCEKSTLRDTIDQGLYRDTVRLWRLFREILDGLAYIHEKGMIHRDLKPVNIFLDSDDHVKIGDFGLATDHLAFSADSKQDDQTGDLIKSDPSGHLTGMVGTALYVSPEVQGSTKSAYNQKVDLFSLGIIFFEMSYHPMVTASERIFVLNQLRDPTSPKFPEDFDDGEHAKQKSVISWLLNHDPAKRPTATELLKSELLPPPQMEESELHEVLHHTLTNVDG

Row | SMILES | IN-GCN2 interaction (%) | further results
1 | COc1cc2c(c(OC)c1OC)-c1ccc(OC)c(=O)cc1[C@@H](NC(C)=O)CC2 [NSC757] | 116.47 | 
2 | CC1(C)[C@H](C(=O)O)CC[C@]1(C)C(=O)O [NSC824] | 90.14 | 
3 | O=C(O)C1(O)C[C@@H](O)C(O)[C@H](O)C1 (some centres unmarked) [NSC1115] |  | IN-GCN2 interaction (%) (listed as 1115): 83.40%
4 | OC[C@H]1O[C@@](CO)(O[C@H]2O[C@H](CO)[C@@H](O)[C@H](O)[C@H]2O)[C@@H](O[C@H]2O[C@H](CO)[C@@H](O)[C@H](O)[C@H]2O)[C@@H]1O [NSC2080] | 102.20 | 
5 | COc1cccc(C=O)c1O [NSC2150] | 88.39 | 
6 | O=C(O)CC(CC(=O)O)C(=O)O [NSC2347] | 84.06 | 
7 | CC1(C)C(CC(=O)O)CC1C(=O)O (centres unmarked) [NSC2802] | 86.94 | 
8 | CCCCCC[C@@H](O)C/C=C\CCCCCCCC(=O)[O-].[Na+] [NSC2835] | 143.81 | 
9 | CC(C)c1ccc2c(c1)CC[C@H]1[C@](C)(C(=O)O)CCC[C@]21C [NSC2952] | 107.26 | 
10 | Cc1c2oc3c(C)ccc(C(=O)N[C@@H]4C(=O)N[C@H](C(C)C)C(=O)N5CCC[C@H]5C(=O)N(C)CC(=O)N(C)[C@@H](C(C)C)C(=O)O[C@@H]4C)c3nc-2c(C(=O)N[C@@H]2C(=O)N[C@H](C(C)C)C(=O)N3CCC[C@H]3C(=O)N(C)CC(=O)N(C)[C@@H](C(C)C)C(=O)O[C@@H]2C)c(N)c1=O [NSC3053] (I: T[dV]P[Sar][NMeV] / II: T[dV]P[Sar][NMeV]; ester I:1-I:C, II:1-II:C; linker I:N-II:N via Actinocin(9to1)) | 121.53 | 
11 | COC1=CC(=O)C(C)=CC1=O [NSC3071] | 99.07 | 
12 | Nc1nc2c(c(=O)[nH]1)N(C=O)C(CNc1ccc(C(=O)N[C@@H](CCC(=O)O)C(=O)O)cc1)CN2 (some centres unmarked) [NSC3590] | 94.67 | 
13 | CC(=O)CCC(=O)O [NSC3716] | 123.74 | 
14 | NC(Cc1cc(I)c(O)c(I)c1)C(=O)O (centres unmarked) [NSC4143] | 75.41 | 
15 | COc1cc([C@H]2c3cc(O)c(OC)cc3C[C@H]3C(=O)OC[C@H]23)ccc1O [NSC4586] | 86.55 | 
16 | CC(C)=CCc1c2c(c3occ(-c4ccc(O)c(O)c4)c(=O)c3c1O)C=CC(C)(C)O2 [NSC5113] | 36.50 | 
17 | CO[C@H]1[C@@H](O)[C@@H](C)O[C@H](O[C@H]2[C@H](Oc3cccc4c(O)c5c(=O)oc6ccc(C)c7c(=O)oc(c34)c5c67)O[C@H](C)[C@H](O)[C@@H]2O)[C@@H]1O [NSC5159] | 121.88 | 
18 | COc1ccc2c(c1OC)C(=O)O[C@@H]2[C@H]1c2c(cc3c(c2OC)OCO3)CCN1C [NSC5366] | 132.74 | 
19 | CCCCCCCCCCCCCCCCCCO [NSC5379] | 92.43 | 
20 | O=c1[nH]cnc2ccccc12 [NSC5863] | 93.27 | 
21 | COC(=O)/C(=C1/OC(=O)C(c2ccccc2)=C1O)c1ccccc1 [NSC5897] | 95.33 | 
22 | C=C[C@]1(C)C=C2CC[C@@H]3[C@](C)(CCC[C@@]3(C)C(=O)O)[C@H]2CC1 [NSC6435] | 127.66 | 
23 | CC1=CC(=O)[C@@H]2C[C@H]1C2(C)C [NSC6832] | 90.37 | 

Row | SMILES | IN-GCN2 interaction (%) | further results
24 | C[C@@H]1O[C@@H](O[C@@H]2C=C3CC[C@@H]4[C@H](CC[C@]5(C)[C@@H](c6ccc(=O)oc6)CC[C@]45O)[C@@]3(C)CC2)[C@H](O)[C@H](O)[C@H]1O [NSC7521] | 97.97 | 
25 | COc1ccc(C(=O)O[C@H]2CC[C@@]3(C)[C@@H]4CC[C@H]5[C@]6(O)C[C@H](O)[C@@]7(O)[C@@H](CN8C[C@@H](C)CC[C@H]8[C@@]7(C)O)[C@]6(O)C[C@@]53O[C@]24O)cc1OC [NSC7524] | 106.09 | 
26 | C[C@@H]1O[C@@H](O[C@@H]2C=C3CC[C@@H]4[C@H](CC[C@]5(C)[C@@H](c6ccc(=O)oc6)CC[C@]45O)[C@@]3(C)CC2)[C@H](O)[C@H](O)[C@H]1O[C@@H]1O[C@H](CO)[C@@H](O)[C@H](O)[C@H]1O [NSC7525] | 99.88 | 
27 | CC(=O)O[C@H]1C[C@H](O[C@H]2[C@@H](O)C[C@H](O[C@H]3[C@@H](O)C[C@H](O[C@H]4CC[C@@]5(C)[C@H](CC[C@@H]6[C@@H]5CC[C@]5(C)[C@@H](C7=CC(=O)OC7)CC[C@]65O)C4)O[C@@H]3C)O[C@@H]2C)O[C@H](C)[C@H]1O[C@@H]1O[C@H](CO)[C@@H](O)[C@H](O)[C@H]1O [NSC7532] | 117.74 | 
28 | CC(=O)O[C@H]1C[C@H](O[C@H]2[C@@H](O)C[C@H](O[C@H]3[C@@H](O)C[C@H](O[C@H]4CC[C@@]5(C)[C@H](CC[C@@H]6[C@@H]5C[C@@H](O)[C@]5(C)[C@@H](C7=CC(=O)OC7)CC[C@]65O)C4)O[C@@H]3C)O[C@@H]2C)O[C@H](C)[C@H]1O[C@@H]1O[C@H](CO)[C@@H](O)[C@H](O)[C@H]1O [NSC7533] | 107.72 | 
29 | CC(=O)O[C@H]1C[C@H](O[C@H]2[C@@H](O)C[C@H](O[C@H]3[C@@H](O)C[C@H](O[C@H]4CC[C@@]5(C)[C@H](CC[C@@H]6[C@@H]5CC[C@]5(C)[C@@H](C7=CC(=O)OC7)[C@@H](O)C[C@]65O)C4)O[C@@H]3C)O[C@@H]2C)O[C@H](C)[C@H]1O[C@@H]1O[C@H](CO)[C@@H](O)[C@H](O)[C@H]1O [NSC7535] | 83.30 | 
30 | NC(=O)NC1NC(=O)NC1=O (centres unmarked) [NSC7606] | 88.72 | 
31 | O=C(O)/C=C(/CC(=O)O)C(=O)O [NSC7616] | 85.71 | 
32 | Nc1ncnc2c1ncn2[C@@H]1O[C@H](CO)[C@@H](O)[C@H]1O [NSC7652] | 51.17 | 
33 | O=C(O)CCCCCCC[C@@H](O)[C@@H](O)CCCCCCO [NSC7668] | 129.82 | 
34 | COc1c2occc2c(OC)c2c(=O)cc(C)oc12 [NSC8519] | 129.74 | 
35 | Oc1ccc2c(c1)OC[C@]1(O)Cc3cc(O)c(O)cc3[C@H]21 [NSC8661] | 86.68 | 
36 | C/C=C/C(=O)O [NSC8751] | 85.97 | 
37 | C[C@H](CCC(=O)O)[C@H]1CC[C@H]2[C@@H]3CC[C@@H]4C[C@H](O)CC[C@]4(C)[C@H]3C[C@H](O)[C@]12C [NSC8797] | 85.28 | 
38 | CC(C)[C@H]1CC[C@@](C)(C(=O)O)C1 [NSC8973] | 89.12 | 
39 | O=C(O)C1OC(O)C(O)C(O)C1O (centres unmarked) [NSC9248] | 110.72 | 
40 | CO[C@@H]1[C@H](O)CC[C@]2(CO2)[C@H]1[C@@]1(C)O[C@@H]1CC=C(C)C [NSC9665] | 118.70 | 
41 | C[C@]12CC[C@@H]3c4ccc(O)cc4CC[C@H]3[C@@H]1CCC2=O [NSC9699] | 98.84 | 
42 | COc1cc2c(cc1OC)CN1CCc3cc(OC)c(OC)cc3C1C2 (centres unmarked) [NSC10105] | 96.86 | 
43 | CN1CCc2cc3c(cc2C(=O)Cc2ccc4c(c2C1)OCO4)OCO3.Cl [NSC11440] | 160.70 | 
44 | COc1ccc(/C=C/C(=O)c2ccccc2)cc1 [NSC11866] | 81.82 | 
45 | CC(C)=CCC1=C(O)c2ccccc2C(=O)C1=O [NSC11905] | 107.31 | 
46 | COc1cccc2c1cc([N+](=O)[O-])c1c(C(=O)O)cc3c(c12)OCO3 [NSC11926] | 137.25 | 

Row | SMILES | IN-GCN2 interaction (%) | further results
47 | O=c1ccc2nc3ccc(O)cc3oc-2c1 [NSC12097] | 169.88 | 
48 | O=C(O)C1C2CC3OC(=O)C1C3C2 (centres unmarked) [NSC12444] | 94.03 | 
49 | Br.C=CC1CN2CCC1CC2C(O)c1ccnc2ccc(OC)cc12 (centres unmarked) [NSC12865] | 97.92 | 
50 | CN1CC(=O)NC1=N [NSC13123] | 106.95 | 
51 | CN(C)[C@@H]1C(O)=C(C(N)=O)C(=O)[C@@]2(O)C(O)=C3C(=O)c4c(O)ccc(Cl)c4[C@@](C)(O)[C@H]3C[C@@H]12 [NSC13252] | 93.93 | 
52 | COc1cc(O)c(C(C)=O)c2c1C=CC(C)(C)O2 [NSC14135] | 87.24 | 
53 | O=c1[nH]c(=O)c2[nH]cnc2[nH]1 [NSC14664] | 105.35 | 
54 | O=c1[nH]cnc2nc[nH]c12 [NSC14665] | 108.10 | 
55 | CC1=CC(O)C(O)C2(C)C1CC1OC(=O)C(O)C3C(C)C(O)C4(O)OCC13C42 (centres unmarked) [NSC14974] | 90.88 | 
56 | CC[C@](C)(O)C(=O)O[C@H]1C(=O)O[C@@H]2C[C@H]3C(C)=C[C@H](O)[C@@H](O)[C@]3(C)[C@H]3[C@]4(O)OC[C@]32[C@@H]1[C@@H](C)[C@H]4O [NSC14975] | 117.58 | 
57 | C=C[C@H]1CN2CC[C@H]1C[C@H]2C(=O)c1ccnc2ccc(OC)cc12 [NSC15307] | 84.16 | 
58 | COC(=O)C1=CO[C@@H](C)[C@@H]2CN3CCc4c([nH]c5cc(OC)ccc45)[C@@H]3C[C@H]12 [NSC15624] | 43.70 | 
59 | N#C[C@H](O[C@@H]1O[C@H](CO[C@@H]2O[C@H](CO)[C@@H](O)[C@H](O)[C@H]2O)[C@@H](O)[C@H](O)[C@H]1O)c1ccccc1 [NSC15780] | 121.81 | 
60 | O=C(O)c1ccc(O)c(O)c1 [NSC16631] | 69.74 | 
61 | CC(C)c1ccc(O)c(=O)cc1 [NSC18805] |  | IN-GCN2 interaction (%) (listed as 18805): 75.92%
62 | O=c1cc(-c2ccccc2)oc2ccccc12 [NSC19028] | 58.68 | 
63 | COc1ccc(/C=C/C(=O)c2c(OC)cc(OC)c(OC)c2O)cc1 [NSC19038] | 50.51 | 
64 | COC(=O)[C@@H]1[C@H]2C[C@H]3c4[nH]c5ccccc5c4CCN3C[C@@H]2CC[C@@H]1O [NSC19509] | 68.27 | 
65 | COC(=O)[C@@H]1[C@H](O)[C@H](C)[C@H](O)[C@H](C)/C=C\C=C(/C)C(=O)Nc2c(C)c(OC(C)=O)c3c(c2O)C(=O)C(C)=C2OCOC(=C23)/C(C)=C/[C@@](C)(O)[C@H](O)[C@@H](C)[C@H]1O [NSC19990] | 69.46 | 
66 | O=C(O)c1cc(O)c(O)c(O)c1 [NSC20103] | 83.04 | 
67 | Nc1ncnc2c1ncn2[C@@H]1O[C@H](COP(=O)(O)O)[C@@H](O)[C@H]1O [NSC20264] | 82.61 | 
68 | O=c1cccc2n1C[C@H]1C[C@@H]2CN2CCCC[C@@H]12 [NSC21725] | 90.50 | 
